In US20180111893A1, “POLYCATIONIC AMPHIPHILES AND POLYMERS THEREOF AS ANTIMICROBIAL AGENTS AND METHODS USING SAME” (Temple University-Of The Commonwealth System of Higher …, priority 2015, published 2018):

Experiments:
Assay in all cases: Minimum inhibitory concentration (MIC)
Assay type in all cases: cell-based
[1] = tested on: community-acquired methicillin-resistant Staphylococcus aureus CA-MRSA (USA300-0114); conditions: for difference in MIC of monoQAC versus triscationic analog against CA-MRSA: monocationic n,0,0 vs triscationic n,1,1; for potency against CA-MRSA: dye-based monoQACs; for MIC CA-MRSA: Table 6
Protocol: (§1) As used herein, the term “minimum inhibitory concentration (MIC)” refers to the lowest concentration of an antimicrobial agent that will inhibit the visible growth of a microorganism after overnight incubation. MIC values against bacteria, for example, the Gram-positive Staphylococcus aureus and Enterococcus faecalis and the Gram-negative Escherichia coli and Pseudomonas aeruginosa were determined by standard methods. See also P. A. Wayne, Methods for Dilution Antimicrobial Tests for Bacteria that Grow Aerobically; Approved Standard, Ninth Edition, 2012, CLSI Document M07-A9, Vol. 32 No. 2, which is incorporated by reference herein in its entirety.
(§2) Compounds were serially diluted two-fold from a 10% DMSO/aqueous stock solution to yield twelve test concentrations. Overnight S. aureus, E. faecalis, E. coli, P. aeruginosa, CA-MRSA, and HA-MRSA cultures diluted to ca. 10^6 cfu/mL in Mueller-Hinton media and 100 μL were inoculated into each well of a U-bottom 96-well plate (BD Biosciences, BD351177) containing 100 μL of compound solution. Plates were incubated statically at 37° C. for 72 hours upon which time wells were evaluated visually for bacterial growth. The MIC was determined as the lowest concentration of compound resulting in no bacterial growth visible to the naked eye, based on the majority of three independent experiments. Positive and negative DMSO/aqueous solution and media controls were conducted for each trial. See Peng et al., 2011, Chem. Comm. 47:4896-4898.
as §2, with “trial.” for “trial. See Peng et al., 2011, Chem. Comm. 47:4896-4898.”

[2] = tested on: Staphylococcus aureus (SA; MSSA SH1000); conditions: Table 6
Protocol: as §1, §2
as §2, with “trial.” for “trial. See Peng et al., 2011, Chem. Comm. 47:4896-4898.”

[3] = tested on: Enterococcus faecalis (OG1RF); conditions: Table 6
Protocol: as §1, §2
as §2, with “trial.” for “trial. See Peng et al., 2011, Chem. Comm. 47:4896-4898.”

[4] = tested on: Escherichia coli (MC4100); conditions: Table 6
Protocol: as §1, §2
as §2, with “trial.” for “trial. See Peng et al., 2011, Chem. Comm. 47:4896-4898.”

[5] = tested on: Pseudomonas aeruginosa (PAO1); conditions: Table 6
Protocol: as §1, §2
as §2, with “trial.” for “trial. See Peng et al., 2011, Chem. Comm. 47:4896-4898.”

[6] = tested on: hospital-acquired methicillin-resistant Staphylococcus aureus HA-MRSA (ATCC 33591); conditions: Table 6
Protocol: as §1, §2
as §2, with “trial.” for “trial. See Peng et al., 2011, Chem. Comm. 47:4896-4898.”

Row | SMILES | increase in MIC against CA-MRSA compared to SA ([1]; dye-based QACs, bacteria with vs without efflux pumps) [fold] | difference in MIC of monoQAC versus triscationic analog against CA-MRSA [1] | potency against CA-MRSA ([1]; in words) | MIC against CA-MRSA ([1]; dye-based QACs) [µM] | difference in MIC/activity between SA and CA-MRSA ([1]; dye-based QACs, in words) | MIC SA [2] [µM] | MIC CA-MRSA [1] [µM] | MIC EF [3] [µM] | MIC EC [4] [µM] | MIC PA [5] [µM] | MIC HA-MRSA [6] [µM]
1 | CCCCCCCCCC[N+](C)(C)c1ccc(C(c2ccc([N+](C)(C)C)cc2)c2ccc([N+](C)(C)C)cc2)cc1 [LCV-10,1,1] | 32 |  |  |  |  |  |  |  |  |  | 
2 | CCCCCCCCCCCCCCCCCC[N+](C)(C)c1ccc(C(c2ccc(N(C)C)cc2)c2ccc(N(C)C)cc2)cc1 [LCV-18,0,0] |  | same differential |  |  |  |  |  |  |  |  | 
3 | CCCCCCCCCC[N+](C)(C)c1ccc(C(c2ccccc2)c2ccc(N(C)C)cc2)cc1 (centres unmarked) [LMG-10,0] |  |  | quite potent |  |  |  |  |  |  |  | 
4 | CCCCCCCCCCC[N+](C)(C)c1ccc(C(c2ccccc2)c2ccc(N(C)C)cc2)cc1 (centres unmarked) [LMG-11,0] |  |  | quite potent |  |  |  |  |  |  |  | 
5 | CCCCCCCCCCCCCCCC[N+](CC)(CC)c1ccc(N(c2ccc(N(CC)CC)cc2)c2ccc(N(CC)CC)cc2)cc1 [TET-16,0,0] |  | 500 × |  | 250 |  |  |  |  |  |  | 
6 | CCCCCCCCCCCCCCCC[N+](CC)(CC)c1ccc(N(c2ccc([N+](C)(CC)CC)cc2)c2ccc([N+](C)(CC)CC)cc2)cc1 [TET-16,1,1] |  |  |  | 0.5 | no difference in activity |  |  |  |  |  | 
7 | CCCCCCCC[N+](C)(C)CCCN(CCC[N+](C)(C)CCCCCCCC)CCC[N+](C)(C)CCCCCCCC [sT-8,8,8,0] |  |  |  |  |  | 4 | 2 | 32 | 32 | 125 | 32
8 | CCCCCCCC[N+](C)(C)CCC[N+](C)(CCC[N+](C)(C)CCCCCCCC)CCC[N+](C)(C)CCCCCCCC [sT-8,8,8,1] |  |  |  |  |  | 0.5 | 1 | 16 | 4 | 250 | 16
9 | C=CC[N+](CCC[N+](C)(C)CCCCCCCC)(CCC[N+](C)(C)CCCCCCCC)CCC[N+](C)(C)CCCCCCCC [sT-8,8,8,3A] |  |  |  |  |  | 1 | 1 | 16 | 4 | 125 | 8
10 | CCCCCCCCCC[N+](C)(C)CCCN(CCC[N+](C)(C)CCCCCCCCCC)CCC[N+](C)(C)CCCCCCCCCC [sT-10,10,10,0] |  |  |  |  |  | 0.5 | 0.5 | 0.5 | 1 | 2 | 0.5
11 | CCCCCCCCCC[N+](C)(C)CCC[N+](C)(CCC[N+](C)(C)CCCCCCCCCC)CCC[N+](C)(C)CCCCCCCCCC [sT-10,10,10,1] |  |  |  |  |  | 0.5 | 0.5 | 0.5 | 0.5 | 2 | 0.5
12 | C=CC[N+](CCC[N+](C)(C)CCCCCCCCCC)(CCC[N+](C)(C)CCCCCCCCCC)CCC[N+](C)(C)CCCCCCCCCC [sT-10,10,10,3A] |  |  |  |  |  | 0.5 | 0.25 | 0.5 | 0.5 | 1 | 0.5
13 | CCCCCCCCCCC[N+](C)(C)CCCN(CCC[N+](C)(C)CCCCCCCCCCC)CCC[N+](C)(C)CCCCCCCCCCC [sT-11,11,11,0] |  |  |  |  |  | 0.5 | 0.5 | 0.5 | 0.5 | 1 | 0.5
14 | CCCCCCCCCCC[N+](C)(C)CCC[N+](C)(CCC[N+](C)(C)CCCCCCCCCCC)CCC[N+](C)(C)CCCCCCCCCCC.[Br-].[Br-].[Br-].[I-] [sT-11,11,11,1] |  |  |  |  |  | 0.5 | ≤0.25 | 0.25 | 0.25 | 1 | 0.5
15 | C=CC[N+](CCC[N+](C)(C)CCCCCCCCCCC)(CCC[N+](C)(C)CCCCCCCCCCC)CCC[N+](C)(C)CCCCCCCCCCC [sT-11,11,11,3A] |  |  |  |  |  | 0.5 | 0.5 | 0.5 | 0.5 | 1 | 1
16 | CCCCCCCCCCC[N+](C)(C)CCC[N+](CCC[N+](C)(C)CCCCCCCCCCC)(CCC[N+](C)(C)CCCCCCCCCCC)Cc1ccccc1 [sT-11,11,11,Bn] |  |  |  |  |  | 0.25 | ≤0.25 | 0.5 | 0.5 | 1 | ≤0.25
17 | CCCCCCCCCCCC[N+](C)(C)CCCN(CCC[N+](C)(C)CCCCCCCCCCCC)CCC[N+](C)(C)CCCCCCCCCCCC [sT-12,12,12,0] |  |  |  |  |  | 0.5 | 0.5 | 1 | 1 | 4 | 1
18 | CCCCCCCCCCCC[N+](C)(C)CCC[N+](C)(CCC[N+](C)(C)CCCCCCCCCCCC)CCC[N+](C)(C)CCCCCCCCCCCC [sT-12,12,12,1] |  |  |  |  |  | 1 | 0.5 | 1 | 1 | 4 | 2
19 | C=CC[N+](CCC[N+](C)(C)CCCCCCCCCCCC)(CCC[N+](C)(C)CCCCCCCCCCCC)CCC[N+](C)(C)CCCCCCCCCCCC [sT-12,12,12,3A] |  |  |  |  |  | 1 | ≤0.25 | 0.5 | 0.5 | 2 | 0.5
20 | CCCCCCCCCCCC[N+](C)(C)CCC[N+](CCC[N+](C)(C)CCCCCCCCCCCC)(CCC[N+](C)(C)CCCCCCCCCCCC)Cc1ccccc1 [sT-12,12,12,Bn] |  |  |  |  |  | 1 | 0.5 | 0.5 | 0.5 | 2 | 0.5
21 | CCCCCCCCCCCCC[N+](C)(C)CCCN(CCC[N+](C)(C)CCCCCCCCCCCCC)CCC[N+](C)(C)CCCCCCCCCCCCC [sT-13,13,13,0] |  |  |  |  |  | 1 | 0.5 | 1 | 1 | 8 | 1
22 | CCCCCCCCCCCCC[N+](C)(C)CCC[N+](C)(CCC[N+](C)(C)CCCCCCCCCCCCC)CCC[N+](C)(C)CCCCCCCCCCCCC [sT-13,13,13,1] |  |  |  |  |  | 2 | 0.5 | 1 | 1 | 4 | 1
23 | C=CC[N+](CCC[N+](C)(C)CCCCCCCCCCCCC)(CCC[N+](C)(C)CCCCCCCCCCCCC)CCC[N+](C)(C)CCCCCCCCCCCCC [sT-13,13,13,3A] |  |  |  |  |  | 2 | 1 | 1 | 1 | 4 | 1
24 | CCCCCCCCCCCCCC[N+](C)(C)CCCN(CCC[N+](C)(C)CCCCCCCCCCCCCC)CCC[N+](C)(C)CCCCCCCCCCCCCC [sT-14,14,14,0] |  |  |  |  |  | 1 | 0.5 | 2 | 4 | 16 | 2
25 | CCCCCCCCCCCCCC[N+](C)(C)CCC[N+](C)(CCC[N+](C)(C)CCCCCCCCCCCCCC)CCC[N+](C)(C)CCCCCCCCCCCCCC [sT-14,14,14,1] |  |  |  |  |  | 4 | 2 | 2 | 4 | 32 | 2
26 | C=CC[N+](CCC[N+](C)(C)CCCCCCCCCCCCCC)(CCC[N+](C)(C)CCCCCCCCCCCCCC)CCC[N+](C)(C)CCCCCCCCCCCCCC [sT-14,14,14,3A] |  |  |  |  |  | 2 | 2 | 2 | 4 | 32 | 2
27 | CCCCCCCCCCCCCCCC[N+](C)(C)CCCN(CCC[N+](C)(C)CCCCCCCCCCCCCCCC)CCC[N+](C)(C)CCCCCCCCCCCCCCCC.[Br-].[Br-].[Br-] [sT-16,16,16,0] |  |  |  |  |  | 8 | 4 | 16 | 16 | 32 | 16
